Data reported in patent US4279912A, “Novel imidazoquinolines” (Roussel Uclaf, priority 1977, dated 1981).
Where a name gives a salt, the structure may show the parent alone. Read-outs that look alike come from different tables or passages of the source.

Test system: Passive cutaneous anaphylaxis (PCA)
Assay: Passive cutaneous anaphylaxis (PCA) in rats
Format: in vivo
Details: Rattus norvegicus
Description: Cutaneous anaphylaxis can be induced in rats by intradermal (ID) sensitization with antiserum followed three days later by systemic challenge with antigen. Evans blue dye injected with the antigen is used as a marker to assess the severity of the local response. Anti-allergic drugs inhibit this reaction. This method has been described by OVARY (1962) "[…] Cutaneous Anaphylaxis in Allergology" Page 358-367 Ed. Brown: Pergamon Press:-male rats weighing 180-220 grams are used in groups of seven. […] 1. Wash 120 grams of Al(OH)3 gel in 140 ml of saline (use of a macerater facilitates mixing). 2. Centrifuge at 3,000 r.p.m. for about 10 minutes. 3. Resuspend the precipitate with 300 ml of albumen egg powder (1.3 mg/ml) in saline and allow to stand for 30 minutes. 4. Centrifuge at 3,000 r.p.m. for 10 minutes. 5. Weigh the wet precipitate and to each gram weight add 1 ml of saline. Store in refrigerator (Quantity sufficient for 60 rats for a 3 day sensitization program). […] 1 ml of the alum precipitated ovalbumen was injected subcutaneously into rats weighing 180-220 grams on days 0,2,4. The rats were bled on day 14 either by cardiac puncture or via the dorsal abdominal aorta. Equal quantities of serum from each animal were pooled and thoroughly mixed and 2 ml aliquots were stored at -20° C. in plastic tubes. Serum Dilution for PCA The antiserum for sensitization was diluted so that an ID injection of 0.1 ml into control animals would give an average score of a single spot of between 2.0-3.5 using a 4 point scoring system. Method (A) SENSITIZATION: The rats were anaesthetized with Nembutal (40-60 mg/kg i.p.) and were then sensitized by four ID injections (0.1 ml each) on their shaved backs. The animals were then left for a period of three days to develop sensitization. (B) […]: The sensitized rats were dosed orally or intraveneously with the drug immediately prior to intraveneous challenge via the superficial penile vein with 1 ml of an antigen/Evans blue mixture (1 mg albumen egg powder in 0.5 ml saline plus 0.5 ml of 1% Evans blue). The injections were speeded up by using an automatic 1 ml self-filling glass syringe. The "challenged" rats were killed after 30 minutes, (usually pithed) and their skin on the dorsal surface was removed. The degree and area of blueing, proportional to the anaphylactic reaction was assessed on a four point scoring system. Calculations 1. Total scores for sites 1,2,3 and 4=X 2. Mean value of X for each group=X 3. X t=X for test group X c=X for control group [formula] 5. […] ED50 values for the compounds tested in the passive cutaneous anaphylaxis screen (in rats) are as follows: […]

[1] = read-out: ED50 (dose of drug giving 50% inhibition), i.v., intravenous dosing immediately prior to antigen/Evans blue challenge
[2] = read-out: ED50 (dose of drug giving 50% inhibition), p.o., oral dosing immediately prior to antigen/Evans blue challenge

CC(C)Oc1cc2nc(C(=O)O)cn2c2ccccc12 [Example 8, 5-isopropoxyimidazo-[1,2-a]-quinoline-2-carboxylic acid hydrochloride]
ED50 [1]: 0.12 mg/kg | ED50 [2]: 1.13 mg/kg

COc1ccc2ccc3nc(C(=O)O)cn3c2c1 [Example 20, 8-methoxyimidazo-[1,2-a]-quinoline-2-carboxylic acid]
ED50 [1]: 0.038 mg/kg | ED50 [2]: 0.14 mg/kg

COc1ccc2c(Cl)cc3nc(C(=O)O)cn3c2c1.Cl [Example 16, 5-chloro-8-methoxyimidazo-[1,2-a]-quinoline-2-carboxylic acid hydrochloride]
ED50 [1]: 0.016 mg/kg | ED50 [2]: 0.27 mg/kg

COc1ccc2c(OC(C)C)cc3nc(C(=O)O)cn3c2c1 [Example 14, 8-methoxy-5-isopropoxyimidazo-[1,2-a]-quinoline-2-carboxylic acid]
ED50 [1]: 0.091 mg/kg | ED50 [2]: ~10 mg/kg

COc1ccc2c(ccc3nc(C(=O)O)cn32)c1 [Example 28, 7-methoxyimidazo-[1,2-a]-quinoline-2-carboxylic acid]
ED50 [1]: 0.03 mg/kg

O=C(O)c1cn2c(ccc3ccccc32)n1 [Example 2, imidazo-[1,2-a]-quinoline-2-carboxylic acid hydrochloride]
ED50 [1]: 0.29 mg/kg | ED50 [2]: 0.63 mg/kg

CCOC(=O)c1cn2c(cc(Cl)c3ccccc32)n1 [Example 5, ethyl 5-chloroimidazo-[1,2-a]-quinoline-2-carboxylate]
ED50 [2]: 0.096 mg/kg

O=C(O)c1cn2c(ccc3ccc(Cl)cc32)n1 [Example 10, sodium 8-chloroimidazo-[1,2-a]-quinoline-2-carboxylate]
ED50 [1]: 0.069 mg/kg | ED50 [2]: 0.11 mg/kg

O=C(O)c1cn2c(cc(Cl)c3ccccc32)n1 [Example 6, 5-chloroimidazo-[1,2-a]-quinoline-2-carboxylic acid hydrochloride]
ED50 [1]: 0.0075 mg/kg | ED50 [2]: 0.47 mg/kg

O=C(O)c1cn2c(cc(Br)c3ccccc32)n1 [Example 26, 5-bromoimidazo-[1,2-a]-quinoline-2-carboxylic acid]
ED50 [1]: 0.046 mg/kg | ED50 [2]: 0.14 mg/kg

O.O=C(O)c1cn2c(ccc3cc(Cl)ccc32)n1 [Example 24, 7-chloroimidazo-[1,2-a]-quinoline-2-carboxylic acid monohydrate]
ED50 [1]: 0.29 mg/kg

O=C(OCCN1CCCCC1)c1cn2c(ccc3ccccc32)n1 [Example 35, 2-piperidinoethyl imidazo-[1,2-a]-quinoline-2-carboxylate]
ED50 [1]: 0.42 mg/kg

COc1ccc2c(OC)cc3nc(C(=O)O)cn3c2c1 [Example 12, 5,8-dimethoxyimidazo-[1,2-a]-quinoline-2-carboxylic acid]
ED50 [1]: 1.22 mg/kg

CC(C)Oc1cc2nc(C(=O)O)cn2c2cc(Cl)ccc12 [Example 18, 8-chloro-5-isopropoxyimidazo-[1,2-a]-quinoline-2-carboxylic acid]
ED50 [1]: 0.027 mg/kg | ED50 [2]: 0.34 mg/kg

COc1cc2nc(C(=O)O)cn2c2ccccc12 [Example 4, THAM salt of 5-methoxyimidazo-[1,2-a]-quinoline-2-carboxylic acid]
ED50 [1]: 0.57 mg/kg | ED50 [2]: 3.74 mg/kg

O=C(O)c1cn2c(cc(Cl)c3ccc(Cl)cc32)n1 [Example 22, 5,8-dichloroimidazo-[1,2-a]-quinoline-2-carboxylic acid]
ED50 [1]: 0.023 mg/kg | ED50 [2]: 0.033 mg/kg

O=C(O)c1cn2c(cc(Cl)c3ccc(Br)cc32)n1 [Example 32, 8-bromo-5-chloroimidazo-[1,2-a]-quinoline-2-carboxylic acid]
ED50 [1]: 0.025 mg/kg | ED50 [2]: 0.08 mg/kg

CCOC(=O)c1cn2c(ccc3ccc(Cl)cc32)n1 [Example 9, ethyl 8-chloroimidazo-[1,2-a]-quinoline-2-carboxylate]
ED50 [2]: 1.72 mg/kg
